Source: patent US20110015123A1, “Modulation of GLUT4 Gene Promoter activity BY AHNAK” (Technion Research and Developmet Foundation Ltd., priority 2008, published 2011)
“Also recorded” adds a separate entry of the source.

What was measured:
[1] = tested on: insulin response element (3×IRS-LUC); experiment: 3×IRS-LUC synthetic promoter reporter assay in PRA; format: cell-based, rat; details: PRA transfected with AHNAK fragments, 24 hrs
Excerpt: (§1) Expression vectors and luciferase promoter reporters. Expression vectors, pC-DY, pM-DY, and pN-DY, baring the C-terminus, middle domain, and N-terminus of human AHNAK in c-myc-tagged pCDNA3 (Hashimoto, Amagai et al. 1993; Nie, Ning et al. 2000), were a generous gift of Dr. Hashimoto (Department of Dermatology, Kurume University School of Medicine, Kurume, Fukuoka, Japan). The rat GLUT4 promoter (GLUT4-P) reporter and a derived series of progressively 5′-deleted promoter reporters, have been described by us previously (Armoni, Harel et al. 2005). A control synthetic reporter 3×IRS-LUC, containing three repeats of an insulin response element consensus motif in pGL2 was provided by Dr. Eric Tang (Tang, Nunez et al. 1999).
(§2) PRA were transfected by electroporation with 2 μg of GLUT4 promoter reporter DNA, 0-5 μg of expression vectors and 0.5 μg of pCMV-β-galactosidase. […] Within each experiment, values were expressed as a percentage of the basal GLUT4 promoter activity, i.e. the activity obtained in cells transfected with promoter reporter alone. Cell viability was assessed by trypan blue exclusion. Each experiment was repeated three to four times, with each sample analyzed in quadruplicates.

AHNAK = experiment: Immunofluorescence of AHNAK cellular distribution in HEK cells; format: cell-based, human; details: serum free medium, 24 hrs, insulin 100 nM alone or with LY 20 μM
Procedure: Immunofluorescence Studies—Human embryonic kidney (HEK) cells were plated in 60 mm plates at a density of 500,000 cells/plate. Cells were incubated for 24 h at 37° C. The next day, cells were washed with magnesium-containing phosphate-buffered saline and transferred to serum-deprived medium supplemented with 2% BSA either with or without Insulin (100 nM). After 24 h, the cells were fixed in 4% paraformaldehyde and stained for indirect immunofluorescence using an anti-AHNAK primary antibody (SC 81048), followed by a FITC-conjugated goat anti-mouse secondary antibody. The nuclei were stained by DAPI.

GLUT4 promoter [2] = experiment: GLUT4-P-Luc promoter reporter (luciferase) assay in primary rat adipocytes (PRA); format: cell-based
Excerpt: as §1
Cell cultures and transient expression assays. […]
as §2

GLUT4 promoter [3] = experiment: GLUT4-P-Luc promoter reporter (luciferase) assay in H9C2 myotubes; format: cell-based, rat; details: 0-100 μM arachidonic acid, 24 h
GLUT4 protein = GLUT4 protein level in PRA by Western immunoblotting; format: cell-based, rat; details: NT-transfected PRA, arachidonic acid 100 μM, 24 hrs
Procedure: AHNAK siRNA. Double-stranded RNAs (dsRNAs) targeting the rat AHNAK were purchased from Dharmacon (Dharmacon, Inc, California, USA). The siRNA (On TARGETplus SMARTpool L-101672-01-0010, Rat Ahnak, XM—574618) used in the experiments is a mixture consisting of the siRNAs of the sequences set forth in SEQ ID NO:1 to SEQ ID NO:8.
PRA were transfected by electroporation with the dsRNA (40 ng in PBS, pH=7.4) as described above. After 24 hrs, cells were harvested and total RNA and protein were obtained. Scrambled non targeting duplex RNA (NT-siRNA) was transfected as control. AHNAK silencing was assessed by QRT-PCR, and normalized to 18S rRNA. GLUT4 expression at protein level was assessed by Western immunoblotting as detailed by us before (Armoni et al., 2002; Armoni et al., 2005).

Molecule	effect on AHNAK repression of 3×IRS-LUC reporter [1]	AHNAK subcellular distribution (AHNAK)	effect on AHNAK fragment repression of GLUT4-P (GLUT4 promoter [2]; PRA transfected with AHNAK fragments, 24 hrs)	effect on transcription from GLUT4-P (GLUT4 promoter [3])	decrease in GLUT4 protein levels (GLUT4 protein)	effect on transcription from GLUT4-P (GLUT4 promoter [2]; PRA, ambient arachidonic acid levels, 24 h)
insulin: Insulin purchased from SIGMA, Israel	partially rescued the activity; also recorded: curtailed this repression	most of it translocates to the cytosel	partially rescued the activity			
O=c1cc(N2CCOCC2)oc2c(-c3ccccc3)cccc12 [LY]		AHNAK nuclear re-distribution				
CCCCC/C=C\C/C=C\C/C=C\C/C=C\CCCC(=O)O [arachidonic acid]				dose-dependently repressed transcription from GLUT4-P	~40%±3	dose-dependently repressed transcription from GLUT4-P
